Assay results taken from patent US6610853B1, “N-(phenylsulfonyl)picolinamide derivatives, process for producing the same, and herbicide” (Kureha Kagaku Kogyo K.K., priority 2000, dated 2003).

Key:
Test in all cases: Test on herbicidal activity by foliar application
Format in all cases: in vivo
Conditions in all cases: foliar spray, 1 kg/ha, plants at 1-2 leaf stage in pots, evaluated 14 days after spraying
[1] = test system: Solanum nigrum
Procedure, shortened: (§1)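 Foliar spray, 1 kg/ha, wettable powder in solution; pot plants at 1-2 leaf stage. Read at 14 d. Score 1-5 (<30%, 30-50%, 50-70%, 70-90%, ≥90% inhibition).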

[2] = test system: Matricaria chamomilla
Procedure, shortened: as §1

[3] = test system: Galium aparine
Procedure, shortened: as §1

[4] = test system: Abutilon theophrasti
Procedure, shortened: as §1

[5] = test system: Setaria viridis
Procedure, shortened: as §1

[6] = test system: Amaranthus retroflexus
Procedure, shortened: as §1

[7] = test system: Stellaria media
Procedure, shortened: as §1

[8] = test system: Sinapis arvensis
Procedure, shortened: as §1

[9] = test system: Veronica hederaefolia
Procedure, shortened: as §1

[10] = test system: Bidens pilosa
Procedure, shortened: as §1

[11] = test system: Convolvulus arvensis
Procedure, shortened: as §1

Compound | Herbicidal activity, Solanum nigrum [1] | Herbicidal activity, Matricaria chamomilla [2] | Herbicidal activity, Galium aparine [3] | Herbicidal activity, Abutilon theophrasti [4] | Herbicidal activity, Setaria viridis [5] | Herbicidal activity, Amaranthus retroflexus [6] | Herbicidal activity, Stellaria media [7] | Herbicidal activity, Sinapis arvensis [8] | Herbicidal activity, Veronica hederaefolia [9] | Herbicidal activity, Bidens pilosa [10] | Herbicidal activity, Convolvulus arvensis [11]
O=C(NS(=O)(=O)c1c(Cl)cccc1Cl)c1cccc(Cl)n1 [Compound I-591, N-[(2,6-Dichlorophenyl)sulfonyl]-6-chloro-2-pyridinecarboxamide] | 5 (90% or more inhibition) | 5 (90% or more inhibition) | 5 (90% or more inhibition) | 5 (90% or more inhibition) | 1 (less than 30% inhibition) | 5 (90% or more inhibition) | 5 (90% or more inhibition) | 5 (90% or more inhibition) | 5 (90% or more inhibition) | 5 (90% or more inhibition) | 5 (90% or more inhibition)
COc1ccc(C(=O)NS(=O)(=O)c2c(Cl)cccc2Cl)nc1 [Compound I-594, N-[(2,6-Dichlorophenyl)sulfonyl]-5-methoxy-2-pyridinecarboxamide] | 2 (30% or more-50% inhibition) | 4 (70% or more-90% inhibition) | 4 (70% or more-90% inhibition) | 4 (70% or more-90% inhibition) | 2 (30% or more-50% inhibition) | 2 (30% or more-50% inhibition) | 5 (90% or more inhibition) | 5 (90% or more inhibition) | 4 (70% or more-90% inhibition) | 4 (70% or more-90% inhibition) | 2 (30% or more-50% inhibition)
COC(=O)c1ccccc1S(=O)(=O)NC(=O)c1cc(OC)cc(Cl)n1 [Compound I-255, 2-[[[(6-Chloro-4-methoxypyridin-2-yl)carbonyl]-amino]sulfonyl]benzoic Acid Methyl Ester] | 5 (90% or more inhibition) | 5 (90% or more inhibition) | 5 (90% or more inhibition) | 5 (90% or more inhibition) | 4 (70% or more-90% inhibition) | 4 (70% or more-90% inhibition) | 5 (90% or more inhibition) | 5 (90% or more inhibition) | 5 (90% or more inhibition) | 5 (90% or more inhibition) | 5 (90% or more inhibition)
COC(=O)c1ccccc1S(=O)(=O)NC(=O)c1ccc(OC)c(Br)n1 [Compound I-265, 2-[[[(6-Bromo-5-methoxypyridin-2-yl)carbonyl]-amino]sulfonyl]benzoic acid methyl ester] | 5 (90% or more inhibition) | 5 (90% or more inhibition) | 4 (70% or more-90% inhibition) | 5 (90% or more inhibition) | 4 (70% or more-90% inhibition) | 5 (90% or more inhibition) | 5 (90% or more inhibition) | 5 (90% or more inhibition) | 3 (50% or more-70% inhibition) | 5 (90% or more inhibition) | 3 (50% or more-70% inhibition)
COc1cc(Cl)nc(C(=O)NS(=O)(=O)c2ccccc2S(C)(=O)=O)c1 [Compound I-818, 6-Chloro-4-methoxy-N-[[2-(methylsulfonyl)-phenyl]sulfonyl]-2-pyridinecarboxamide] | 5 (90% or more inhibition) | 5 (90% or more inhibition) | 5 (90% or more inhibition) | 4 (70% or more-90% inhibition) | 5 (90% or more inhibition) | 5 (90% or more inhibition) | 5 (90% or more inhibition) | 5 (90% or more inhibition) | 4 (70% or more-90% inhibition) | 5 (90% or more inhibition) | 5 (90% or more inhibition)
COc1ccc(C(=O)NS(=O)(=O)c2ccccc2S(=O)(=O)N(C)C)nc1OC [Compound I-889, N-[[2-(N,N-Dimethylaminosulfonyl)phenyl]-sulfonyl]-5,6-dimethoxy-2-pyridinecarboxamide] | 4 (70% or more-90% inhibition) | 5 (90% or more inhibition) | 5 (90% or more inhibition) | 5 (90% or more inhibition) | 4 (70% or more-90% inhibition) | 5 (90% or more inhibition) | 5 (90% or more inhibition) | 5 (90% or more inhibition) | 3 (50% or more-70% inhibition) | 5 (90% or more inhibition) | 4 (70% or more-90% inhibition)
COc1ccc(C(=O)NS(=O)(=O)c2ccccc2OC(F)(F)F)nc1[N+](=O)[O-] [Compound I-778] | 5 (90% or more inhibition) | 5 (90% or more inhibition) | 4 (70% or more-90% inhibition) | 5 (90% or more inhibition) | 3 (50% or more-70% inhibition) | 4 (70% or more-90% inhibition) | 3 (50% or more-70% inhibition) | 5 (90% or more inhibition) | 2 (30% or more-50% inhibition) | 5 (90% or more inhibition) | 5 (90% or more inhibition)
COc1ccc(C(=O)NS(=O)(=O)c2ccccc2S(=O)(=O)N(C)C)nc1Br [Compound I-895, N-[[2-(N,N-Dimethylaminosulfonyl)phenyl]-sulfonyl]-6-bromo-5-methoxy-2-pyridinecarboxamide] | 5 (90% or more inhibition) | 5 (90% or more inhibition) | 5 (90% or more inhibition) | 5 (90% or more inhibition) | 5 (90% or more inhibition) | 5 (90% or more inhibition) | 5 (90% or more inhibition) | 5 (90% or more inhibition) | 5 (90% or more inhibition) | 5 (90% or more inhibition) | 5 (90% or more inhibition)
COc1ccc(C(=O)NS(=O)(=O)c2ccccc2S(C)(=O)=O)nc1Br [Compound I-819, 6-Bromo-5-methoxy-N-[[2-(methylsulfonyl)-phenyl]sulfonyl]-2-pyridinecarboxamide] | 5 (90% or more inhibition) | 5 (90% or more inhibition) | 4 (70% or more-90% inhibition) | 5 (90% or more inhibition) | 5 (90% or more inhibition) | 5 (90% or more inhibition) | 5 (90% or more inhibition) | 5 (90% or more inhibition) | 3 (50% or more-70% inhibition) | 5 (90% or more inhibition) | 4 (70% or more-90% inhibition)
COC(=O)c1ccccc1S(=O)(=O)NC(=O)c1cc(OC)cc(C)n1 [Compound I-254, 2-[[[(4-Methoxy-6-methylpyridin-2-yl)carbonyl]-amino]sulfonyl]benzoic Acid Methyl Ester] | 5 (90% or more inhibition) | 3 (50% or more-70% inhibition) | 5 (90% or more inhibition) | 5 (90% or more inhibition) | 4 (70% or more-90% inhibition) | 5 (90% or more inhibition) | 5 (90% or more inhibition) | 5 (90% or more inhibition) | 5 (90% or more inhibition) | 5 (90% or more inhibition) | 3 (50% or more-70% inhibition)
